Test results from US11512097B2, “Heterocyclic compounds as Delta-5 desaturase inhibitors and methods of use” (Amgen Inc., priority 2019, dated 2022).

target: T1, Delta-5-Desaturase (D5D), membrane preparations of D5D-overexpressing HEK293 6E cells (Homo sapiens, UniProt O60427); test: In vitro measurement of Delta-5-Desaturase inhibitory activity using DGLA-CoA and Arachidonyl-CoA mass spectrometric assays; type: biochemical; settings: D5D membrane 10 μg/mL, one-hour incubation, average of at least two independent runs
T1 construct: expressed in transfected cells; host or cells: HEK293 6E cells (membrane preparation)
Protocol: In Vitro Measurement of Delta-5-Desaturase Inhibitory Activity Using DGLA-CoA and Arachidonyl-CoA Mass Spectrometric Assays Membrane preparations of D5D-overexpressing HEK293 6E cells were prepared in which the total protein concentration was 5.6 mg/mL. Stock D5D membrane preparations were diluted in D5D assay buffer (25 mM 2-amino-2-(hydroxymethyl)-1,3-propanediol, pH 7.5 containing 10 mM MgCl2, 1 mM octyl glucoside (SigmaAldrich O-8001), 1 mM tris(2-carboxyethyl)phosphine hydrochloride (SigmaAldrich 646547)) to a final D5D membrane concentration of 10 μg/mL in an assay plate containing serially diluted test compounds. To 15 μL of this D5D preparation was added 15 μL of a substrate solution (0.25 mM NADH (nicotinamide adenine dinucleotide, Roche Diag. 10107735001), 0.25 mM adenosine triphosphate (SigmaAldrich A-3377), 0.05 mM coenzyme A hydrate (SigmaAldrich C-4282), and 0.01 mM DGLA (dihomo-g-linolenic acid, Sigma E-4504) in the same D5D assay buffer. After one-hour incubation at ambient temperature acetonitrile (30 μL) was added to quench the reaction and plates were centrifuged for 10 min @ 3,000 rpm. Mass spectrometric analysis involved a Rapidfire 360 SPE system coupled to an ABSciex API4000 Triple Quadrupole mass spectrometer using a C18 SPE cartridge (G9203-80105) with ionization in negative mode (solvent A=100% water; solvent B=100% acetonitrile, each solvent containing 5 mM ammonium acetate). DGLA-CoA and Arachidonyl-CoA were detected by multiple reaction monitoring (MRM) of the doubly charged parent ions at m/z 526.6 and 525.6, respectively. […] Sx is value from unknown sample, So is value from DMSO alone and Sc is value from no enzyme well. For CRC analysis, the % of inhibitions were analysed with 4 Parameter Logistic Model or Sigmoidal Dose-Response Model using XLfit (IDBS, Guilford, UK). The potency of the test item was expressed as IC50 nM, corresponding to the test item concentration able to inhibit the 50% of the enzyme maximal response. IC50 values were averaged values determined by at least two independent runs. The results presented in Table 15 have been generated with the in vitro assay described above. This assay may be used to test any of the compounds described herein to assess and characterize a compound's ability to inhibit D5D.

T1 sequence (O60427 whole entry, species assumed): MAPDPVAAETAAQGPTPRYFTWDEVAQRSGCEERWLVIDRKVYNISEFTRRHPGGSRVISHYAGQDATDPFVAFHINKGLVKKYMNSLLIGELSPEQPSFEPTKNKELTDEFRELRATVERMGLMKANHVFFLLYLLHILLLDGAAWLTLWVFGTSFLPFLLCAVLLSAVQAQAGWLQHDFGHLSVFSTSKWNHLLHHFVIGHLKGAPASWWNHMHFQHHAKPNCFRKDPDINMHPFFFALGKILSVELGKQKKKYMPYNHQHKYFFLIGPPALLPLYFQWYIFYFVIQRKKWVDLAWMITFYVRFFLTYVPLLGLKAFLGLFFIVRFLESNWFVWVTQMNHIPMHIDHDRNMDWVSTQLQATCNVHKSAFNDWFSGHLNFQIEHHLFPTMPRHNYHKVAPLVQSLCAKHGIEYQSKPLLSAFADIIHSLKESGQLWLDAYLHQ

Row | Structure (SMILES) | IC50
1 | Cc1nn2c(=O)c(-c3cnn(CC4CC4(F)F)c3)c(C(F)(F)F)nc2s1 (stereo not drawn) [Example 23, 6-{1-[(2,2-difluorocyclopropyl)methyl]-1H-pyrazol-4-yl}-2-methyl-7-(trifluoromethyl)-5H-[1,3,4]thiadiazolo[3,2-a]pyrimidin-5-one] | 158 nM
2 | Cc1nn2c(=O)c(-c3cnn(CC4CC(F)(F)C4)c3)c(C(F)(F)F)nc2s1 [Example 26, 6-{1-[(3,3-difluorocyclobutyl)methyl]-1H-pyrazol-4-yl}-2-methyl-7-(trifluoromethyl)-5H-[1,3,4]thiadiazolo[3,2-a]pyrimidin-5-one] | 104 nM
3 | Cn1ncn2c(=O)c(-c3cnn(CC(F)(F)C(F)(F)F)c3)c(C(F)(F)F)nc12 [Example 27, 1-methyl-6-[1-(2,2,3,3,3-pentafluoropropyl)-1H-pyrazol-4-yl]-7-(trifluoromethyl)-1H,5H-[1,2,4]triazolo[4,3-a]pyrimidin-5-one] | 2.6 nM
4 | Cc1nn2c(=O)c(-c3cnn(CC4COC4)c3)c(C(F)(F)F)nc2s1 [Example 29, 2-methyl-6-{1-[(oxetan-3-yl)methyl]-1H-pyrazol-4-yl}-7-(trifluoromethyl)-5H-[1,3,4]thiadiazolo[3,2-a]pyrimidin-5-one] | 1580 nM
5 | Cc1nn2c(=O)c(-c3ccn(CC(F)(F)C(F)(F)F)n3)c(C(F)(F)F)nc2s1 [Example 30, 2-methyl-6-[1-(2,2,3,3,3-pentafluoropropyl)-1H-pyrazol-3-yl]-7-(trifluoromethyl)-5H-[1,3,4]thiadiazolo[3,2-a]pyrimidin-5-one] | 17900 nM
6 | O=c1c(-c2ccc(OCC(F)(F)F)cc2)c(C(F)(F)F)nc2sccn12 [Example 31, 6-[4-(2,2,2-trifluoroethoxy)phenyl]-7-(trifluoromethyl)-5H-[1,3]thiazolo[3,2-a]pyrimidin-5-one] | 2.3 nM
7 | O=c1c(-c2cnn(CC(F)(F)C(F)(F)F)c2)c(C(F)(F)F)nc2sc(CO)cn12 [Example 32, 2-(hydroxymethyl)-6-[1-(2,2,3,3,3-pentafluoropropyl)-1H-pyrazol-4-yl]-7-(trifluoromethyl)-5H-[1,3]thiazolo[3,2-a]pyrimidin-5-one] | 45.6 nM
8 | O=c1c(-c2ccc(OCC(F)(F)F)cc2)c(C(F)(F)F)nc2sc(CO)cn12 [Example 33, 2-(hydroxymethyl)-6-[4-(2,2,2-trifluoroethoxy)phenyl]-7-(trifluoromethyl)-5H-[1,3]thiazolo[3,2-a]pyrimidin-5-one] | 0.9 nM
9 | O=c1c(-c2ccc(OCC(F)(F)F)cc2)c(C(F)(F)F)nc2sc(Cl)cn12 [Example 34, 2-chloro-6-[4-(2,2,2-trifluoroethoxy)phenyl]-7-(trifluoromethyl)-5H-[1,3]thiazolo[3,2-a]pyrimidin-5-one] | 4.8 nM
10 | Cc1nn2c(=O)c(-c3ccc(OCC(F)(F)F)cc3)c(C(F)(F)F)nc2s1 [Example 40, 2-methyl-6-[4-(2,2,2-trifluoroethoxy)phenyl]-7-(trifluoromethyl)-5H-[1,3,4]thiadiazolo[3,2-a]pyrimidin-5-one] | 224 nM
11 | CCOc1nc2sc(C)nn2c(=O)c1-c1cnn(CC(F)(F)C(F)(F)F)c1 [Example 41, 7-ethoxy-2-methyl-6-[1-(2,2,3,3,3-pentafluoropropyl)-1H-pyrazol-4-yl]-5H-[1,3,4]thiadiazolo[3,2-a]pyrimidin-5-one] | 877 nM
12 | COCc1nn2c(=O)c(-c3cnn(CC(F)(F)C(F)(F)F)c3)c(C(F)(F)F)nc2s1 [Example 42, 2-(methoxymethyl)-6-[1-(2,2,3,3,3-pentafluoropropyl)-1H-pyrazol-4-yl]-7-(trifluoromethyl)-5H-[1,3,4]thiadiazolo[3,2-a]pyrimidin-5-one] | 27.4 nM
13 | O=c1c(-c2cnn(CCC(F)(F)F)c2)c(C(F)(F)F)nc2sc(CO)nn12 [Example 46, 2-(hydroxymethyl)-7-(trifluoromethyl)-6-[1-(3,3,3-trifluoropropyl)-1H-pyrazol-4-yl]-5H-[1,3,4]thiadiazolo[3,2-a]pyrimidin-5-one] | 36.1 nM
14 | Cn1c(C2CC2)cn2c(=O)c(-c3cnn(CC(F)(F)C(F)(F)F)c3)c(C(F)(F)F)nc12 [Example 50, 2-cyclopropyl-1-methyl-6-[1-(2,2,3,3,3-pentafluoropropyl)-1H-pyrazol-4-yl]-7-(trifluoromethyl)-1H,5H-imidazo[1,2-a]pyrimidin-5-one] | 120 nM
15 | Cn1c(Cl)cn2c(=O)c(-c3cnn(CCC(F)(F)F)c3)c(C(F)(F)F)nc12 [Example 51, 2-chloro-1-methyl-7-(trifluoromethyl)-6-[1-(3,3,3-trifluoropropyl)-1H-pyrazol-4-yl]-1H,5H-imidazo[1,2-a]pyrimidin-5-one] | 36.8 nM

Results, then the compound that gave them:

Row | IC50 | Structure (SMILES)
16 | 168 nM | CC1Cn2c(nc(C(F)(F)F)c(-c3cnn(CC(F)(F)C(F)(F)F)c3)c2=O)S1 (stereo not drawn) [Example 24, 2-methyl-6-[1-(2,2,3,3,3-pentafluoropropyl)-1H-pyrazol-4-yl]-7-(trifluoromethyl)-2H,3H,5H-[1,3]thiazolo[3,2-a]pyrimidin-5-one]
17 | 354 nM | O=c1c(-c2cnn(CC(F)(F)C(F)(F)F)c2)c(C(F)(F)F)nc2n1CC1CC21 (stereo not drawn) [Example 25, 8-[1-(2,2,3,3,3-pentafluoropropyl)-1H-pyrazol-4-yl]-9-(trifluoromethyl)-6,10-diazatricyclo[4.4.0.0^2,4]deca-1(10),8-dien-7-one]
18 | 6 nM | Cn1nnn2c(=O)c(-c3cnn(CC(F)(F)C(F)(F)F)c3)c(C(F)(F)F)nc12 [Example 28, 3-methyl-6-[1-(2,2,3,3,3-pentafluoropropyl)-1H-pyrazol-4-yl]-5-(trifluoromethyl)-3H,7H-[1,2,3,4]tetrazolo[1,5-a]pyrimidin-7-one]
19 | 118 nM | CC(C)N1C(=O)Cn2c1nc(C(F)(F)F)c(-c1cnn(CC(F)(F)C(F)(F)F)c1)c2=O [Example 35, 6-[1-(2,2,3,3,3-pentafluoropropyl)-1H-pyrazol-4-yl]-1-(propan-2-yl)-7-(trifluoromethyl)-1H,2H,3H,5H-imidazo[1,2-a]pyrimidine-2,5-dione]
20 | > 67000 nM | CN1C(=O)C(C)(C)n2c1nc(C(F)(F)F)c(-c1cnn(CC(F)(F)C(F)(F)F)c1)c2=O [Example 36, 1,3,3-trimethyl-6-[1-(2,2,3,3,3-pentafluoropropyl)-1H-pyrazol-4-yl]-7-(trifluoromethyl)-1H,2H,3H,5H-imidazo[1,2-a]pyrimidine-2,5-dione]
21 | 11.5 nM | Cn1ccn2c(=O)c(-c3cnn(CC(F)(F)C(F)(F)F)c3)c(C(F)(F)F)nc12 [Example 37, 1-methyl-6-[1-(2,2,3,3,3-pentafluoropropyl)-1H-pyrazol-4-yl]-7-(trifluoromethyl)-1H,5H-imidazo[1,2-a]pyrimidin-5-one]
22 | 67.3 nM | Cn1cnn2c(=O)c(-c3cnn(CC(F)(F)C(F)(F)F)c3)c(C(F)(F)F)nc12 [Example 38, 3-methyl-6-[1-(2,2,3,3,3-pentafluoropropyl)-1H-pyrazol-4-yl]-5-(trifluoromethyl)-3H,7H-[1,2,4]triazolo[1,5-a]pyrimidin-7-one]
23 | 18.8 nM | Cc1cn2c(=O)c(-c3cnn(CC(F)(F)C(F)(F)F)c3)c(C(F)(F)F)nc2o1 [Example 39, 2-methyl-6-[1-(2,2,3,3,3-pentafluoropropyl)-1H-pyrazol-4-yl]-7-(trifluoromethyl)-5H-[1,3]oxazolo[3,2-a]pyrimidin-5-one]
24 | 34 nM | COc1nn2c(=O)c(-c3cnn(CC(F)(F)C(F)(F)F)c3)c(C(F)(F)F)nc2s1 [Example 43, 2-methoxy-6-[1-(2,2,3,3,3-pentafluoropropyl)-1H-pyrazol-4-yl]-7-(trifluoromethyl)-5H-[1,3,4]thiadiazolo[3,2-a]pyrimidin-5-one]
25 | 3210 nM | Cn1cc(Cl)n2c(=O)c(-c3cnn(CC(F)(F)C(F)(F)F)c3)c(C(F)(F)F)nc12 [Example 44, 3-chloro-1-methyl-6-[1-(2,2,3,3,3-pentafluoropropyl)-1H-pyrazol-4-yl]-7-(trifluoromethyl)-1H,5H-imidazo[1,2-a]pyrimidin-5-one]
26 | 4950 nM | O=C1Cn2c(nc(C(F)(F)F)c(-c3cnn(CC(F)(F)C(F)(F)F)c3)c2=O)N1 [Example 47, 6-[1-(2,2,3,3,3-pentafluoropropyl)-1H-pyrazol-4-yl]-7-(trifluoromethyl)-1H,2H,3H,5H-imidazo[1,2-a]pyrimidine-2,5-dione]
27 | 331 nM | O=c1c(-c2cnn(CC(F)(F)C(F)(F)F)c2)c(C(F)(F)F)nc2[nH]c(Cl)cn12 [Example 49, 2-chloro-6-[1-(2,2,3,3,3-pentafluoropropyl)-1H-pyrazol-4-yl]-7-(trifluoromethyl)-1H,5H-imidazo[1,2-a]pyrimidin-5-one]
